The text below walks through data of US20250099596A1, “TETRAHYDRONAPHTHALENE COMPOUND, AND PREPARATION METHOD THEREFOR AND USE THEREOF IN MEDICINE” (Jiangsu Hengrui Pharmaceuticals Co., Ltd., priority 2021, published 2025).

Each structure is given as a SMILES string. Like-named read-outs stand apart in the source and are kept apart here.

Data set [1] in a line: Pharmacokinetic evaluation, beagle test. The data set is classed as in vivo. To be noted: beagles; for AUC(0-t): read-out: Area under curve AUC0-t; for half-life: read-out: Half-life T1/2 (converted); for Cmax: read-out: Plasma concentration Cmax. The procedure: With beagles as test animals, the plasma concentrations of the compound of Example 26-1 and Comparative Example 1 were determined by LC/MS/MS at different time points after intragastric (i.g.)/intravenous (i.v.) administration to beagles. The pharmacokinetic behavior of the compound of the present disclosure in beagles was studied and its pharmacokinetic profile was evaluated.
The compound of Example 26-1 and Comparative Example 1 (see patent WO2018102725A1, Example 411), whose structure is shown below:
Sixteen beagles, of which half were male and half female, were evenly divided into 4 groups. The beagles were provided by Shanghai Medicilon Inc. The 4 groups were fasted overnight and then dosed intragastrically and intravenously.
Certain amounts of the compound of Example 26-1 and the compound of Comparative Example 1 were weighed out and mixed with 5% (v/v) DMSO+30% (v/v) PG+30% (v/v) PEG400+35% (v/v) normal saline to make 0.4 mg/mL clear solutions (for the intragastric administration groups) and 0.25 mg/mL clear solutions (for the intravenous administration groups).
The intragastric administration groups: the dose was 2.0 mg/kg, and the volume was 5.0 mL/kg.
The intravenous administration groups: the dose was 0.5 mg/kg, and the volume was 2.0 mL/kg.
The intragastric administration group: Blood (1.0 mL) was collected from the jugular vein or the forelimb vein into EDTA-K2 anticoagulation tubes before administration and 0.25 h, 0.5 h, 1.0 h, 2.0 h, 4.0 h, 6.0 h, 8.0 h, 12.0 h and 24.0 h after administration and centrifuged at 10,000 rpm for 5 min (4° C.). The plasma was separated within 1 h and stored at −80° C. before analysis. The process from blood collection to centrifugation was performed in an ice bath. Three hours after administration, feeding was resumed.
The intravenous administration groups: Blood was collected before administration and 5 min, 0.25 h, 0.5 h, 1.0 h, 2.0 h, 4.0 h, 8.0 h, 12.0 h and 24 h after administration and processed as in the intragastric administration groups.
The plasma concentrations of the test compounds were determined after administration of different concentrations of the test compounds to beagles: plasma samples (50 μL) were collected from beagles at various time points after administration, and proteins were precipitated with 500 μL of methanol (containing 100 ng/mL internal standard Verapamil) for each of the samples; the mixtures were vortexed for 1 min and centrifuged at 18,000 g for 7 min. 500 μL of supernatant was transferred to a 96-well plate. 1 μL of supernatant was collected for LC/MS/MS analysis.

Data set [2] deals with human breast cancer cell MCF-7 (Y537S) xenograft tumors. Briefly: Pharmacodynamic test: MCF-7 (Y537S) xenograft tumors in BEIGE SCID mice. Format: in vivo. The conditions noted are these: for Number of remaining animals/group / Mean tumor volume (mm^3) D 0 / Mean tumor volume (mm^3) D 28 / TGI (%) D 28: i.g., qd/28 d; for Mean tumor volume (mm^3) D 0: D 0 (day of grouping). The source says:
To evaluate the inhibitory effect of the compound of the present disclosure on the growth of human breast cancer cell MCF-7 (Y537S) xenograft tumors in BEIGE SCID mice.
A 2% Tween 80+98% PEG-400 solution was used.
Animals: BEIGE SCID female mice, purchased from Beijing Vital River Laboratory Animal Technology Co., Ltd. (certificate No. SCXK (Beijing) 2016-0006), weighing about 19 g on purchase.
BEIGE SCID mice were acclimatized and then grouped as follows:
MCF-7 (Y537S) cells in the logarithmic growth phase were subcutaneously inoculated at 1.0×10^7/mouse/200 μL (containing 100 μL of matrigel) into the right flank of female BEIGE SCID mice. After 18 days, when the tumor volume of tumor-bearing mice reached about 170 mm^3, the mice were randomly divided into 4 groups of 8 by tumor volume and body weight: a vehicle control group, an Example 26-1 5 mpk group, an Example 26-1 15 mpk group, and an Example 26-1 45 mpk group. The day of grouping was set as DO, and intragastric administration was started and performed once a day for 28 days. The 28th day after administration was set as D28 (Table 7). For the tumor-bearing mice, the tumor volume was measured with a vernier caliper and the body weight was measured with a balance twice a week, and data were recorded.
All data were plotted and statistically analyzed using Excel and GraphPad Prism 8 software.
The tumor volume (V) was calculated as follows: V=1/2×a×b^2, where a and b represent length and width, respectively.
The relative tumor proliferation rate T/C (%)=(T−T0)/(C−C0)×100(%), where T and C are tumor volumes of a treatment group and the control group respectively at the end of the experiment; T0 and C0 are tumor volumes of a treatment group and the control group respectively at the beginning of the experiment.
Tumor growth inhibition ? TGI (%)=1−T/C (%), and if TGI (%) exceeds 100%, it will not be shown as a specific value but >100%.

The test system of another data set is MCF7/ERα Y537S cells. The data set is described as follows: Inhibitory activity on proliferation of ERα mutant-expressing MCF7 cells. Format: cell-based. The conditions noted are these: Homo sapiens, 144 h, 6 days incubation, CellTiter-Glo, read-out: IC50 (nM), inhibition of proliferation of ERα mutant-expressing MCF7 cells. In short, it runs like this: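 MCF7 cells stably expressing ERα Y537S (lentiviral) were seeded in 2% FBS medium and exposed for 6 days at 37 °C to 9 concentrations (4-fold dilution from 1000 nM, 0.5% DMSO control). Viability read by CellTiter-Glo luminescence; IC50 calculated from concentration–signal data.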
On the technique in general: In ATP-based viability assays light output follows the ATP content of the culture.

Where [3] appears, read: both sexes, beagle, dog, plasma, iv, i.v., 0.5 mg/kg.
The mark [4] stands for this setting: both sexes, beagle, dog, plasma, po, i.g., 2.0 mg/kg.

`CC(C)C[C@H]1CCc2cc(O)ccc2[C@H]1c1ccc(N2CCC(CN3CCN(c4ccc5c(c4)CN([C@H]4CCC(=O)NC4=O)C5=O)CC3)CC2)cc1` [Example 26-1, (S)-3-(5-(4-((1-(4-((1R,2R)-6-Hydroxy-2-isobutyl-1,2,3,4-tetrahydronaphthalen-1-yl)phenyl)piperidin-4-yl)methyl)piperazin-1-yl)-1-oxoisoindolin-2-yl)piperidine-2,6-dione]: the “Clearance CL/F” value in data set [1] (i.v., 0.5 mg/kg) came out at 1.7 mL/min/kg. Also, in data set [1] (setting [3]), the AUC(0-t) came to 4070 ng·h/mL, the half-life is 9.7 h and the Cmax was 1600 ng/mL. In data set [1] (both sexes, beagle, dog, plasma, po, i.g., 2.0 mg/kg, read-out: Apparent distribution volume Vz/F), the Vd/F was found to be 5.67 L/kg. In addition, in data set [1] (setting [4]), the AUC(0-t) was found to be 4820 ng·h/mL, the half-life was 10.4 h and the Cmax was determined as 436 ng/mL. The CL/F in data set [1] (both sexes, beagle, dog, plasma, po, i.g., 2.0 mg/kg, read-out: Clearance CL/F) is 6.2 mL/min/kg. Moreover, the “Effect on the body weight of BEIGE SCID mice” value in data set [2] (i.g., 5, 15, 45 mpk, qd for 28 days) is reported as “did not affect mouse body weight”. In data set [2] (5 mpk), the “Number of remaining animals/group” value was 8/8, the “Mean tumor volume (mm^3) D 0” value is 170.2 mm^3, the “Mean tumor volume (mm^3) D 28” value worked out at 305.0 mm^3 and the “TGI (%) D 28” value worked out at 72%. Moreover, in data set [2] (15 mpk), the “Number of remaining animals/group” value was 8/8, the “Mean tumor volume (mm^3) D 0” value was 168.2 mm^3, the “Mean tumor volume (mm^3) D 28” value came out at 219.7 mm^3 and the “TGI (%) D 28” value is on record as 89%. In data set [2] (45 mpk), the “Number of remaining animals/group” value is listed as 8/8, the “Mean tumor volume (mm^3) D 0” value is on record as 168.6 mm^3, the “Mean tumor volume (mm^3) D 28” value is recorded as 192.0 mm^3 and the “TGI (%) D 28” value amounted to 95%. Further, in the data set with MCF7/ERα Y537S cells, the IC50 was 1.67 nM.
